In PubChem BioAssay (NCI):
Several values for one entry are separate records, joined by “and”; a condition that tells them apart may be missing. Identical values can stand only once.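 Step 1: Grow cells in 96-well plates. Step 2: Expose to compound for 48 hours at 5 concentrations. Step 3: Interpolate endpoints linearly; if unreached, use highest concentration. GI50: concentration for 50% inhibition of growth. At the TGI there is no net growth.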

Columns and labels:
Assay in all cases: DTP human tumour cell line panel, 48 h
[1] = system: MOLT-4 leukemia
[2] = system: RXF 393 renal
[3] = system: HCT-116 colon
[4] = system: SNB-75 CNS
[5] = system: SK-OV-3 ovarian
[6] = system: HL-60(TB) leukemia
[7] = system: HOP-62 NSCLC
[8] = system: M14 melanoma
[9] = system: SF-295 CNS
[10] = system: UO-31 renal

Structure (SMILES): Cc1cc(S(=O)(=O)NC(=NCC(=O)NN)NN)c(S)cc1Cl
- TGI [1]: > 10 µM
- TGI [2]: > 10 µM
- TGI [3]: > 10 µM
- TGI [4]: > 10 µM
- TGI [5]: > 10 µM
- TGI [6]: > 10 µM
- TGI [7]: > 10 µM
- TGI [8]: > 10 µM
- TGI [9]: > 10 µM

Structure (SMILES): CCCCCCCC(CC(=O)O)OC(=O)CC(CCCCCCC)OC1OC(C)C(O)C(O)C1OC1OC(C)C(O)C(O)C1O (stereo not given)
- TGI [10]: > 100 µM
- TGI [1]: > 100 µM
- TGI [3]: > 100 µM
- TGI [4]: > 100 µM
- TGI [5]: > 100 µM
- TGI [7]: > 100 µM
- TGI [8]: > 100 µM
- TGI [9]: > 100 µM

Structure (SMILES): O=C(Nc1ccccc1)N1N=C(c2ccccc2)C1c1ccccc1 (stereo not given)
- TGI [10]: 69.6 µM
- TGI [2]: 44.5 µM
- TGI [3]: 44.8 µM
- TGI [4]: 32 µM
- TGI [5]: > 100 µM
- TGI [6]: > 100 µM
- TGI [8]: 60.4 µM
- TGI [9]: 73.8 µM

Structure (SMILES): COc1ccccc1OC/C(N=Cc1ccncc1)=N/NC(=O)c1ccncc1
- TGI [1]: > 100 µM
- TGI [2]: > 100 µM
- TGI [3]: > 100 µM
- TGI [5]: > 100 µM
- TGI [6]: > 100 µM
- TGI [7]: > 100 µM
- TGI [8]: > 100 µM
- TGI [9]: > 100 µM

Structure (SMILES): c1ccc(COc2ncccc2C2SCCCS2)cc1
- TGI [10]: > 100 µM
- TGI [2]: > 100 µM
- TGI [3]: > 100 µM
- TGI [7]: > 100 µM
- TGI [8]: > 100 µM
- TGI [9]: > 100 µM

Structure (SMILES): O=C1O/C(=C\c2ccc(O)cc2)C(c2ccc(O)c(Cl)c2)=C1Br
- TGI [10]: 36.4 µM
- TGI [1]: 49 µM
- TGI [2]: 59.8 µM
- TGI [3]: 23.6 µM
- TGI [5]: 37.2 µM
- TGI [6]: 51.2 µM
- TGI [7]: 35.3 µM
- TGI [8]: 26.4 µM
- TGI [9]: 28.9 µM

Structure (SMILES): COc1cc2c(cc1OC)C1Cc3ccccc3CN1CCC2 (stereo not given)
- TGI [1]: > 100 µM
- TGI [2]: > 100 µM
- TGI [3]: > 100 µM
- TGI [4]: > 100 µM
- TGI [5]: > 100 µM
- TGI [7]: > 100 µM
- TGI [8]: > 100 µM
- TGI [9]: > 100 µM

Structure (SMILES): COC(=O)C(Cc1ccccc1)NC(=O)CCCNC(=O)OCc1ccccc1 (stereo not given)
- TGI [10]: > 100 µM
- TGI [1]: > 100 µM
- TGI [3]: > 100 µM
- TGI [4]: > 100 µM
- TGI [5]: > 100 µM
- TGI [6]: > 100 µM
- TGI [7]: > 100 µM
- TGI [8]: 32.5 µM
- TGI [9]: > 100 µM

Structure (SMILES): COC(=O)CNC(=O)/C=C/[C@H](O[Si](C)(C)C(C)(C)C)[C@H](/C=C/C(=O)NCC(=O)OC)O[Si](C)(C)C(C)(C)C
- TGI [10]: > 25 µM
- TGI [1]: > 25 µM
- TGI [2]: > 25 µM
- TGI [3]: > 25 µM
- TGI [4]: > 25 µM
- TGI [5]: > 25 µM
- TGI [7]: > 25 µM
- TGI [9]: > 25 µM

Structure (SMILES): C=CCN1C(=O)/C(=C/c2ccc(Cl)cc2)N=C1SC1OC(COC(C)=O)C(OC(C)=O)C(OC(C)=O)C1OC(C)=O (stereo not given)
- TGI [1]: > 100 µM and 43.2 µM
- GI50 [2]: 4.94 µM and 11.6 µM
- TGI [2]: 19.5 µM and 47.5 µM
- TGI [3]: 87.5 µM
- GI50 [4]: 4.11 µM and 25.9 µM
- TGI [4]: 13.8 µM and 81.5 µM
- TGI [5]: > 61.8 µM and 65.6 µM
- GI50 [7]: 5.66 µM and 21.9 µM
- TGI [7]: 20.6 µM and 62.6 µM
- TGI [8]: > 100 µM
- GI50 [9]: 18.2 µM and 49.9 µM
- TGI [9]: 54 µM and > 100 µM

Structure (SMILES): CC(=O)c1c(O)c(C)c(O)c2c1OC1=CC(=O)C(C(C)=O)C(=O)C12C (stereo not given)
- GI50 [10]: 1.96 µM and 18.2 µM
- TGI [10]: 7.08 µM and 53.6 µM
- GI50 [1]: 3.37 µM and 20.1 µM
- TGI [1]: 13.5 µM and 59.4 µM
- GI50 [2]: 5.72 µM and 19.2 µM
- TGI [2]: 22.8 µM and 43.8 µM
- GI50 [3]: 10.9 µM and 22.3 µM
- TGI [3]: 45.7 µM and 66.3 µM
- GI50 [4]: 5.97 µM and 22.5 µM
- TGI [4]: 21.2 µM and 49 µM
- GI50 [5]: 9.68 µM and 26.5 µM
- TGI [5]: 56.1 µM and 80.6 µM
- GI50 [6]: 3.15 µM and 16.4 µM
- TGI [6]: 8.9 µM and 43 µM
- GI50 [7]: 3.66 µM and 20.1 µM
- TGI [7]: 12.2 µM and 46.1 µM
- GI50 [9]: 3.48 µM and 8.79 µM
- TGI [9]: 12.4 µM and 33.8 µM

Structure (SMILES): C=C1c2nc3ccccc3n2C=C(c2ccccc2)N1c1ccc(OC)cc1
- TGI [10]: 26.6 µM
- TGI [1]: > 100 µM
- TGI [2]: 83.5 µM
- TGI [3]: 59.9 µM
- TGI [4]: 21.2 µM
- TGI [5]: > 100 µM
- TGI [6]: > 100 µM
- TGI [8]: 52.6 µM
- TGI [9]: 25.3 µM

Structure (SMILES): Cc1ccc(Nc2nnc3n2S(=O)(=O)c2cc(C)c(Cl)cc2S3)cc1
- TGI [10]: 81.3 µM
- TGI [1]: 32.7 µM
- TGI [2]: 49.1 µM
- TGI [3]: 67.2 µM
- TGI [4]: 73.4 µM
- TGI [6]: 9.33 µM
- TGI [7]: 51.8 µM
- TGI [8]: 47.4 µM
- TGI [9]: 25.7 µM

Structure (SMILES): COc1cc2cc3c4c(cc(OC)c(OC)c4c2cc1OC)CCN3C(=O)OCCBr
- TGI [10]: > 100 µM
- TGI [1]: > 100 µM
- TGI [2]: > 100 µM
- TGI [3]: > 100 µM
- TGI [4]: > 100 µM
- TGI [5]: > 100 µM
- TGI [6]: > 100 µM
- TGI [9]: > 100 µM

Structure (SMILES): C=CCOn1c(C=C)nc2c(C)cccc21
- TGI [10]: 6.03 µM
- TGI [1]: 17 µM
- TGI [3]: 4.97 µM
- TGI [4]: 14.5 µM
- TGI [5]: 12.5 µM
- TGI [6]: 5.1 µM
- TGI [7]: 22 µM
- TGI [8]: 12.3 µM
- TGI [9]: 21 µM

Structure (SMILES): COc1cccc(N2N=C3c4ccccc4-n4c(nc5ccccc54)C3C2N)c1 (stereo not given)
- TGI [10]: > 100 µM
- TGI [3]: > 100 µM
- TGI [4]: > 100 µM
- TGI [6]: > 100 µM
- TGI [7]: > 100 µM
- TGI [8]: > 100 µM
- TGI [9]: > 100 µM

Structure (SMILES): C=C1C(=O)O[C@H]2C(=O)[C@H](C)CCC[C@@](C)(O)/C=C\C[C@@]3(C)O[C@@H]3C[C@@H]12
- TGI [10]: 27.6 µM
- TGI [3]: 20.2 µM
- TGI [5]: > 100 µM
- TGI [8]: 24 µM
- TGI [9]: 17.5 µM

Structure (SMILES): Cc1cnc2[nH]c(-c3ccccc3)cc(=O)c2c1
- TGI [10]: 68 µM
- TGI [1]: > 14.4 µM
- TGI [3]: > 100 µM
- TGI [4]: 82.8 µM
- TGI [5]: 16.4 µM
- TGI [6]: 0.226 µM
- TGI [7]: > 100 µM
- TGI [8]: > 18 µM

Structure (SMILES): CCC1(O)CN(CCOC)[C@H]2C[C@@H]1C(=O)c1[nH]c3ccccc3c12 (stereo not given in full)
- TGI [10]: > 100 µM
- TGI [1]: > 100 µM
- TGI [2]: > 100 µM
- TGI [3]: > 100 µM
- TGI [4]: > 100 µM
- TGI [6]: > 100 µM
- TGI [7]: > 100 µM
- TGI [8]: > 100 µM
- TGI [9]: > 100 µM

Structure (SMILES): CCOc1cc(C=O)ccc1O
- TGI [10]: > 100 µM
- TGI [1]: > 100 µM
- TGI [3]: > 100 µM
- TGI [4]: > 100 µM
- TGI [6]: > 100 µM
- TGI [7]: > 100 µM
- TGI [8]: > 100 µM
- TGI [9]: > 100 µM

Structure (SMILES): CCOC(=O)C(Cc1c(-c2[nH]c3ccccc3c2CC(NC(=O)CNC(C)=O)C(=O)OCC)[nH]c2ccccc12)NC(=O)CNC(C)=O (stereo not given)
- TGI [10]: > 100 µM
- TGI [1]: > 100 µM
- TGI [3]: > 100 µM
- TGI [4]: 93.6 µM
- TGI [5]: > 100 µM
- TGI [7]: > 100 µM
- TGI [8]: > 100 µM
- TGI [9]: > 100 µM

Structure (SMILES): COc1cc([C@@H]2c3cc4c(cc3[C@@H](Nc3ccc(Cl)cc3C(=O)c3ccccc3Cl)[C@H]3COC(=O)[C@H]23)OCO4)cc(OC)c1OC
- TGI [10]: > 100 µM
- TGI [1]: > 100 µM
- TGI [2]: > 75.3 µM
- TGI [3]: > 100 µM
- TGI [4]: > 100 µM
- TGI [5]: > 100 µM
- TGI [7]: 16.9 µM
- TGI [8]: > 100 µM
- TGI [9]: > 37.4 µM

Structure (SMILES): c1ccc(C/C(=N\Nc2nc3ccccc3o2)c2ccccn2)cc1
- TGI [10]: 4.55 µM
- TGI [2]: 1.92 µM
- TGI [3]: 3.68 µM
- TGI [5]: 0.0726 µM
- TGI [6]: 1.68 µM
- TGI [7]: 1.55 µM
- TGI [8]: 0.992 µM
- TGI [9]: 3.25 µM
